Reference: patent EP0432183B1, “NEW CITYDIN-5'-DIPHOSPHATE ALKANOLS AND GLYCEROLS, A PROCESS FOR PREPARING THEM AND THEIR USE” (Clarion Pharmaceuticals, Inc., priority 1988, dated 1990)

System: Ehrlich Ascites-Tumorzellen
Assay: Concentration-dependent growth inhibition of Ehrlich ascites tumour cells (antiproliferative effect)
Assay type: cell-based
Conditions: Wachstumshemmung, read-out: Hemmung (%); for inhibition at 3 µM: Konzentration 3 μmolar; for inhibition at 10 µM: Konzentration 10 μmolar; for inhibition at 30 µM: Konzentration 30 μmolar; for inhibition at 100 µM: Konzentration 100 μmolar
Excerpt: Zur Bestimmung der cytostatischen Wirkung wurde die antiproliferative Wirkung bei Ehrlich-Ascites Tumorzellen untersucht. Dabei zeigte sich, daß die erfindungsgemäßen Verbindungen ausgezeichnete cytostatische Wirkung aufweisen. Sie können daher allein oder in Mischung mit anderen Wirksubstanzen in Form üblicher galenischer Zubereitungen als Cytostatika oder Virustatika eingesetzt werden.
Konzentrationsabhängige Wachstumshemmung von Ehrlich Ascites-Tumorzellen.

| SMILES | inhibition at 3 µM [%] | inhibition at 10 µM [%] | inhibition at 30 µM [%] | inhibition at 100 µM [%] |
| --- | --- | --- | --- | --- |
| CCCCCCCCCCCCCCCCOCC(COP(=O)(O)OP(=O)(O)OC[C@H]1O[C@@H](n2ccc(N)nc2=O)[C@H](O)[C@@H]1O)OCC(F)(F)F (stereo partly shown) [Bsp. 2, Cytidin-5'-diphosphat-1-0-hexadecyl-2-0-(2,2,2-trifluorethyl)glycerol] | 9.5 | 30 | 86 | 100 |
| CCCCCCCCCCCCCCCCOP(=O)(O)OP(=O)(O)OC[C@H]1O[C@@H](n2ccc(N)nc2=O)[C@H](O)[C@@H]1O [Bsp. 1, Cytidin-5'-diphosphat-hexadekanol] | 12 | 19 | 46 | 31 |
| CCCCCCCCCCCCCCCCOCC(CCl)OP(=O)(O)OP(=O)(O)OC[C@H]1O[C@@H](n2ccc(N)nc2=O)[C@H](O)[C@@H]1O (stereo partly shown) [Bsp. 3, Cytidin-5'-diphosphat-3-chlor-3-desoxy-1-0-hexadecylglycerol] | 12 | 17 | 29 | 69 |
| CCCCCCCCCCCCCCCCOCC(Cl)COP(=O)(O)OP(=O)(O)OC[C@H]1O[C@@H](n2ccc(N)nc2=O)[C@H](O)[C@@H]1O (stereo partly shown) [Bsp. 4, Cytidin-5'-diphosphat-2-chlor-2-desoxy-1-0-hexadecylglycerol] | 18 | 38 | 67 | 94 |
